Values joined by “and” are separate entries in the source; they are usually repeats but may differ in a detail not shown here. Identical values can stand only once. Inconclusive results and toxic doses are left out.
System: L1210 leukemia ip in BDF1 mice, survival T/C
Experiment: NCI In Vivo Anticancer Drug Screen. Data for tumor model L1210 Leukemia (intraperitoneal) in B6D2F1 (BDF1) mice
Settings: endpoint: mean survival time, higher = longer survival
Outline: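 Survival endpoint. Drug-treated group vs vehicle group, expressed as T divided by C. Tumor passaged by transplantation.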

**Q.** Which T/C (dose: 0.16 mg/kg/injection, schedule: Q#A X Z (ip), vehicle: saline) does the source give for `CCOC(=O)NP(=O)(N1CC1)N1CC1` here?
**A.** 100 % of control

**Q.** What about the T/C (dose: 0.31 mg/kg/injection, schedule: Q#A X Z (ip), vehicle: saline) of the same compound?
**A.** 100 % of control

**Q.** What about the T/C (dose: 0.32 mg/kg/injection, schedule: Q01DX Z (im), vehicle: saline) of the same compound?
**A.** 105 % of control

**Q.** And the T/C (dose: 0.32 mg/kg/injection, schedule: Q01DX Z (ip), vehicle: saline)?
**A.** 102 % of control

**Q.** What about the T/C (dose: 0.62 mg/kg/injection, schedule: Q#A X Z (ip), vehicle: saline) of the same compound?
**A.** 102 % of control

**Q.** And the T/C (dose: 0.63 mg/kg/injection, schedule: Q01DX Z (im), vehicle: saline)?
**A.** 105 % of control

**Q.** And the T/C (dose: 0.63 mg/kg/injection, schedule: Q01DX Z (ip), vehicle: saline)?
**A.** 98 % of control

**Q.** And the T/C (dose: 0.7 mg/kg/injection, schedule: Q01DX Z (ip), vehicle: carboxymethylcellulose (CMC))?
**A.** 101 % of control

**Q.** And the T/C (dose: 0.9 mg/kg/injection, schedule: Q03DX006 (ip), vehicle: saline)?
**A.** 104 % of control

**Q.** And the T/C (dose: 1.25 mg/kg/injection, schedule: Q01DX Z (im), vehicle: saline)?
**A.** 104 % of control

**Q.** And the T/C (dose: 1.25 mg/kg/injection, schedule: Q01DX Z (ip), vehicle: saline)?
**A.** 105 % of control

**Q.** And the T/C (dose: 1.25 mg/kg/injection, schedule: Q01DX Z (oral), vehicle: saline)?
**A.** 100 % of control

**Q.** What about the T/C (dose: 1.25 mg/kg/injection, schedule: Q#A X Z (ip), vehicle: saline) of the same compound?
**A.** 121 % of control

**Q.** What about the T/C (dose: 1.5 mg/kg/injection, schedule: Q01DX Z (ip), vehicle: carboxymethylcellulose (CMC)) of the same compound?
**A.** 104 % of control

**Q.** What about the T/C (dose: 1.9 mg/kg/injection, schedule: Q03DX006 (ip), vehicle: saline) of the same compound?
**A.** 104 % of control

**Q.** What about the T/C (dose: 2.2 mg/kg/injection, schedule: Q01DX001 (ip), vehicle: saline) of the same compound?
**A.** 101 % of control and 107 % of control

**Q.** What about the T/C (dose: 2.2 mg/kg/injection, schedule: Q07DX003 (ip), vehicle: saline) of the same compound?
**A.** 105 % of control

**Q.** And the T/C (dose: 2.37 mg/kg/injection, schedule: Q01DX Z (ip), vehicle: carboxymethylcellulose (CMC))?
**A.** 114 % of control

**Q.** What about the T/C (dose: 2.5 mg/kg/injection, schedule: Q01DX Z (im), vehicle: saline) of the same compound?
**A.** 107 % of control

**Q.** And the T/C (dose: 2.5 mg/kg/injection, schedule: Q01DX Z (ip), vehicle: saline)?
**A.** 107 % of control

**Q.** And the T/C (dose: 2.5 mg/kg/injection, schedule: Q01DX Z (oral), vehicle: saline)?
**A.** 107 % of control

**Q.** What about the T/C (dose: 3.0 mg/kg/injection, schedule: Q01DX Z (ip), vehicle: carboxymethylcellulose (CMC)) of the same compound?
**A.** 113 % of control

**Q.** And the T/C (dose: 3.8 mg/kg/injection, schedule: Q03DX006 (ip), vehicle: saline)?
**A.** 105 % of control

**Q.** And the T/C (dose: 4.4 mg/kg/injection, schedule: Q01DX001 (ip), vehicle: saline)?
**A.** 102 % of control

**Q.** And the T/C (dose: 4.4 mg/kg/injection, schedule: Q07DX003 (ip), vehicle: saline)?
**A.** 105 % of control

**Q.** What about the T/C (dose: 5.0 mg/kg/injection, schedule: Q01DX006 (iv), vehicle: saline) of the same compound?
**A.** 100 % of control

**Q.** What about the T/C (dose: 5.0 mg/kg/injection, schedule: Q01DX Z (oral), vehicle: saline) of the same compound?
**A.** 100 % of control

**Q.** What about the T/C (dose: 5.0 mg/kg/injection, schedule: Q01DX Z (sc), vehicle: saline) of the same compound?
**A.** 120 % of control

**Q.** And the T/C (dose: 5.06 mg/kg/injection, schedule: Q01DX Z (ip), vehicle: carboxymethylcellulose (CMC))?
**A.** 117 % of control

**Q.** What about the T/C (dose: 6.0 mg/kg/injection, schedule: Q01DX Z (ip), vehicle: carboxymethylcellulose (CMC)) of the same compound?
**A.** 158 % of control

**Q.** What about the T/C (dose: 6.33 mg/kg/injection, schedule: Q01DX Z (ip), vehicle: carboxymethylcellulose (CMC)) of the same compound?
**A.** 124 % of control

**Q.** What about the T/C (dose: 7.5 mg/kg/injection, schedule: Q03DX006 (ip), vehicle: saline) of the same compound?
**A.** 119 % of control

**Q.** What about the T/C (dose: 8.7 mg/kg/injection, schedule: Q01DX001 (ip), vehicle: saline) of the same compound?
**A.** 108 % of control

**Q.** And the T/C (dose: 8.7 mg/kg/injection, schedule: Q07DX003 (ip), vehicle: saline)?
**A.** 105 % of control

**Q.** What about the T/C (dose: 8.75 mg/kg/injection, schedule: Q01DX001 (ip), vehicle: saline) of the same compound?
**A.** 113 % of control and 123 % of control

**Q.** What about the T/C (dose: 9.5 mg/kg/injection, schedule: Q01DX Z (ip), vehicle: carboxymethylcellulose (CMC)) of the same compound?
**A.** 157 % of control

**Q.** And the T/C (dose: 10.0 mg/kg/injection, schedule: Q01DX006 (iv), vehicle: saline)?
**A.** 105 % of control

**Q.** What about the T/C (dose: 10.0 mg/kg/injection, schedule: Q01DX Z (im), vehicle: saline) of the same compound?
**A.** 160 % of control

**Q.** And the T/C (dose: 10.0 mg/kg/injection, schedule: Q01DX Z (ip), vehicle: saline)?
**A.** 195 % of control

**Q.** And the T/C (dose: 10.0 mg/kg/injection, schedule: Q01DX Z (oral), vehicle: saline)?
**A.** 115 % of control

**Q.** What about the T/C (dose: 10.0 mg/kg/injection, schedule: Q#A X Z (ip), vehicle: saline) of the same compound?
**A.** 110 % of control

**Q.** What about the T/C (dose: 12.0 mg/kg/injection, schedule: Q01DX Z (ip), vehicle: carboxymethylcellulose (CMC)) of the same compound?
**A.** 115 % of control

**Q.** And the T/C (dose: 12.66 mg/kg/injection, schedule: Q01DX Z (ip), vehicle: carboxymethylcellulose (CMC))?
**A.** 152 % of control

**Q.** What about the T/C (dose: 15.0 mg/kg/injection, schedule: Q03DX007 (ip), vehicle: saline) of the same compound?
**A.** 182 % of control

**Q.** And the T/C (dose: 20.0 mg/kg/injection, schedule: Q01DX006 (iv), vehicle: saline)?
**A.** 117 % of control

**Q.** What about the T/C (dose: 20.0 mg/kg/injection, schedule: Q01DX Z (im), vehicle: saline) of the same compound?
**A.** 152 % of control

**Q.** And the T/C (dose: 20.0 mg/kg/injection, schedule: Q01DX Z (sc), vehicle: saline)?
**A.** 175 % of control

**Q.** What about the T/C (dose: 24.0 mg/kg/injection, schedule: Q01DX Z (ip), vehicle: carboxymethylcellulose (CMC)) of the same compound?
**A.** 94 % of control and 102 % of control

**Q.** And the T/C (dose: 30.0 mg/kg/injection, schedule: Q03DX007 (ip), vehicle: saline)?
**A.** 165 % of control

**Q.** What about the T/C (dose: 38.0 mg/kg/injection, schedule: Q01DX Z (ip), vehicle: carboxymethylcellulose (CMC)) of the same compound?
**A.** 94 % of control

**Q.** What about the T/C (dose: 40.0 mg/kg/injection, schedule: Q01DX Z (im), vehicle: saline) of the same compound?
**A.** 94 % of control

**Q.** What about the T/C (dose: 40.0 mg/kg/injection, schedule: Q01DX Z (ip), vehicle: saline) of the same compound?
**A.** 103 % of control

**Q.** What about the T/C (dose: 40.0 mg/kg/injection, schedule: Q01DX Z (oral), vehicle: saline) of the same compound?
**A.** 155 % of control

**Q.** What about the T/C (dose: 70.0 mg/kg/injection, schedule: Q07DX001 (ip), vehicle: saline) of the same compound?
**A.** 115 % of control

**Q.** What about the T/C (dose: 80.0 mg/kg/injection, schedule: Q01DX Z (sc), vehicle: saline) of the same compound?
**A.** 111 % of control

**Q.** What about the T/C (dose: 280.0 mg/kg/injection, schedule: Q01DX001 (ip), vehicle: saline) of the same compound?
**A.** 105 % of control
